Assay results taken from US20240067639A1, “SMALL MOLECULES THAT TARGET THE RNA THAT CAUSES ALS” (EXPANSION THERAPEUTICS, INC., priority 2020, published 2024).
Like-named read-outs stand apart in the source and are kept apart here.

How the values were obtained:
[1] = target: biotinylated r(G4C2)8 RNA and hnRNP H1-His6; test: TR-FRET hnRNP H binding assay
Description: TR-FRET hnRNP H Binding Assay. The TR-FRET assays were performed as previously described (Disney et al., 2012) except the final concentrations of biotinylated r(G4C2)8 (SEQ ID NO: 2) RNA and hnRNP H1-His6 were 80 nM and 75 nM, respectively. The RNA was folded by heating to 95° C. for 5 min in 1× Folding Buffer followed by slowly cooling to room temperature. The buffer was adjusted to 1×TR-FRET Assay Buffer followed by addition of compound. The mixture was incubated for 15 min at room temperature and then hnRNP H1-His6 was added. After an additional 15 min incubation, streptavidin-XL665 (HTRF, Cisbio Bioassays) and anti-His6-Tb (HTRF, Cisbio Bioassays) were added to a final concentration of 40 nM and 0.44 ng/μL, respectively. After incubating for 1 h, TR-FRET was measured as previously described. The IC50s were either calculated by fitting the equation (1) in Graphpad Prism.

[2] = test system: RAN translation of (G4C2)66-No ATG-GFP in HEK293T cells; test: Cell-based assay of RAN translation inhibition (GFP/mCherry reporter); details: Homo sapiens, HEK-293T, 24 h, read-out: RANT IC25
[3] = Table D, HEK293T, 24 h treatment
[4] = Table F, HEK293T, 24 h treatment

Row | Ki ([1]; Table D) | Ki ([1]; Table F) | SMILES | IC25 [2, 3] | IC25 [2, 4] | IC25 [2]
1 | 11 µM | – | Cc1c2ccncc2cc2c3cc(OCCCN4CCOCC4)ccc3n(C)c12 [Compound 8, 4-(3-((5,6-dimethyl-6H-pyrido[4,3-b]carbazol-9-yl)oxy)propyl)morpholine] | 0.36 µM | – | –
2 | 9.4 µM | – | Cc1c2ccncc2cc2c3cc(OCCCN4CCN(C)CC4)ccc3n(C)c12 [Compound 23, 5,6-dimethyl-9-(3-(4-methylpiperazin-1-yl)propoxy)-6H-pyrido[4,3-b]carbazole] | > 5 µM | – | –
3 | 5.2 µM | – | Cc1c2ccncc2cc2c3cc(OCC(=O)N(C)C)ccc3n(C)c12 [Example 57, 2-((5,6-dimethyl-6H-pyrido[4,3-b]carbazol-9-yl)oxy)-N,N-dimethylacetamide] | 4 µM | – | –
4 | – | 42 µM | CC(C)n1c2ccc(OCC3=NCCN3)cc2c2cc3cnccc3cc21 [Compound 256, 9-(4,5-dihydro-1H-imidazol-2-ylmethoxy)-6-isopropyl-pyrido[4,3-b]carbazole] | – | > 5 µM | –
5 | 1 µM | – | Cc1c2ccncc2cc2c3c(OCC4=NCCN4)cccc3n(C)c12 [Example 56, 10-((4,5-dihydro-1H-imidazol-2-yl)methoxy)-5,6-dimethyl-6H-pyrido[4,3-b]carbazole] | 0.67 µM | – | –
6 | > 200 µM | – | COc1ccc2c(c1)c1cc3cnccc3c(C)c1n2C [Compound 1, 9-methoxy-5,6-dimethyl-6H-pyrido[4,3-b]carbazole] | > 5 µM | – | –
7 | 5.6 µM | – | Cc1c2ccncc2cc2c3ccc(OCC4=NCCN4)cc3n(C)c12 [Example 52, 8-((4,5-dihydro-1H-imidazol-2-yl)methoxy)-5,6-dimethyl-6H-pyrido[4,3-b]carbazole] | 3.1 µM | – | –
8 | 4 µM | – | Cc1c2ccncc2cc2c3cc(C(=O)NCCN(C)C)ccc3n(C)c12 [Example 68, N-(2-(dimethylamino)ethyl)-5,6-dimethyl-6H-pyrido[4,3-b]carbazole-9-carboxamide] | 0.72 µM | – | –
9 | 39 µM | – | COc1ccc2c(c1)c1cc3c(C(=O)N[C@H](C)CN(C)C)nccc3c(C)c1n2C [Example 25, (R)—N-(1-(dimethylamino)propan-2-yl)-9-methoxy-5,6-dimethyl-6H-pyrido[4,3-b]carbazole-1-carboxamide] | 0.27 µM | – | –
10 | 0.76 µM | – | Cc1c2ccncc2cc2c3cc(OC[C@H]4CCCN4)ccc3n(C)c12 [Example 38, (R)-5,6-dimethyl-9-(pyrrolidin-2-ylmethoxy)-6H-pyrido[4,3-b]carbazole] | 0.74 µM | – | –
11 | – | 22 µM | Cc1c2ccncc2cc2c3cc(OCC4=NCCN4)ccc3n(CCC(C)C)c12 [Compound 249, 9-(4,5-dihydro-1H-imidazol-2-ylmethoxy)-6-isopentyl-5-methyl-pyrido[4,3-b]carbazole] | – | > 5 µM | –
12 | 6 µM | – | Cc1c2ccncc2cc2c3ccc(OCCN(C)C)cc3n(C)c12 [Example 51, 2-((5,6-dimethyl-6H-pyrido[4,3-b]carbazol-8-yl)oxy)-N,N-dimethylethanamine] | > 5 µM | – | –
13 | 0.8 µM | – | Cc1c2ccncc2cc2c3cc(OC[C@@H]4CCCN4)ccc3n(C)c12 [Example 39, (S)-5,6-dimethyl-9-(pyrrolidin-2-ylmethoxy)-6H-pyrido[4,3-b]carbazole] | 1.3 µM | – | –
14 | 0.6 µM | – | Cc1c2ccncc2cc2c3cc(OCC4=NCCN4C)ccc3n(C)c12 [Example 41, 5,6-dimethyl-9-((1-methyl-4,5-dihydro-1H-imidazol-2-yl)methoxy)-6H-pyrido[4,3-b]carbazole] | 0.67 µM | – | –
15 | – | 0.4 µM | Cc1c2ccncc2cc2c3cc(N4CCNCC4)ccc3n(C)c12 [Compound 244, 5,6-dimethyl-9-(piperazin-1-yl)-6H-pyrido[4,3-b]carbazole] | – | 2.4 µM | –
16 | 18 µM | – | Cc1c2ccncc2cc2c3cc(OCC(N)=O)ccc3n(C)c12 [Compound 12, 2-((5,6-dimethyl-6H-pyrido[4,3-b]carbazol-9-yl)oxy)acetamide] | 0.3 µM | – | –
17 | 9.2 µM | – | Cc1c2ccncc2cc2c3cc(OCC(=O)NCCN4CCOCC4)ccc3n(C)c12 [Example 42, 2-((5,6-dimethyl-6H-pyrido[4,3-b]carbazol-9-yl)oxy)-N-(2-morpholinoethyl)acetamide] | > 5 µM | – | –

Row | Ki ([1]; Table D) | Ki ([1]; Table F) | SMILES | IC25 [2, 3] | IC25 [2, 4] | IC25 [2]
18 | – | 6.9 µM | Cc1c2ccnc(C3CCCO3)c2cc2c3cc(C(=O)NCCN(C)C)ccc3n(C)c12 (stereo not shown) [Compound 216, N-(2-(dimethylamino)ethyl)-5,6-dimethyl-1-(tetrahydrofuran-2-yl)-6H-pyrido[4,3-b]carbazole-9-carboxamide] | – | 1.7 µM | –
19 | – | 0.6 µM | Cc1c2ccncc2cc2c3cc(N4CCN(C)CC4)ccc3n(C)c12 [Compound 243, 5,6-dimethyl-9-(4-methylpiperazin-1-yl)-6H-pyrido[4,3-b]carbazole] | – | 1.2 µM | –
20 | 107 µM | – | Cc1c2ccncc2cc2c3cc(C(=O)N(C)C)ccc3n(C)c12 [Example 71, N,N,5,6-tetramethyl-6H-pyrido[4,3-b]carbazole-9-carboxamide] | > 5 µM | – | –
21 | 13 µM | – | Cc1c2ccncc2cc2c3c(OCCN4CCOCC4)cccc3n(C)c12 [Example 54, 4-(2-((5,6-dimethyl-6H-pyrido[4,3-b]carbazol-10-yl)oxy)ethyl)morpholine] | 1.3 µM | – | –
22 | 16 µM | – | Cc1c2ccncc2cc2c3cc(OCCN4CCOCC4)ccc3n(C)c12 [Compound 11, 4-(2-((5,6-dimethyl-6H-pyrido[4,3-b]carbazol-9-yl)oxy)ethyl)morpholine] | 0.4 µM | – | –
23 | 17 µM | – | COc1ccc2c(c1)c1cc3c(C(=O)NCCCN(C)C)nccc3c(C)c1n2C [Example 29, N-(3-(dimethylamino)propyl)-9-methoxy-5,6-dimethyl-6H-pyrido[4,3-b]carbazole-1-carboxamide] | 0.74 µM | – | –
24 | 12 µM | – | Cc1c2ccncc2cc2c3cc(C(N)=O)ccc3n(C)c12 [Example 69, 5,6-dimethyl-6H-pyrido[4,3-b]carbazole-9-carboxamide] | 1.6 µM | – | –
25 | – | 1.6 µM | Cc1c2ccncc2cc2c3cc(N4CCNC5(CC5)C4)ccc3n(C)c12 [Compound 246, 5,6-dimethyl-9-(4,7-diazaspiro[2.5]octan-7-yl)-6H-pyrido[4,3-b]carbazole] | – | > 5 µM | –
26 | 0.9 µM | – | Cc1c2ccncc2cc2c3cc(OC[C@@H](C)N)ccc3n(C)c12 [Example 61, (R)-1-((5,6-dimethyl-6H-pyrido[4,3-b]carbazol-9-yl)oxy)propan-2-amine] | 1 µM | – | –
27 | – | 5.7 µM | Cc1c2ccncc2cc2c1[nH]c1ccc(OCC3=NCCN3)cc12 [Compound 257, 9-((4,5-dihydro-1H-imidazol-2-yl)methoxy)-5-methyl-6H-pyrido[4,3-b]carbazole] | – | 2.7 µM | –
28 | 3.9 µM | – | Cc1c2ccncc2cc2c3cc(OC[C@H]4CCCN4C)ccc3n(C)c12 [Example 36, (R)-5,6-dimethyl-9-((1-methylpyrrolidin-2-yl)methoxy)-6H-pyrido[4,3-b]carbazole] | > 5 µM | – | –
29 | 20 µM | – | Cc1c2ccncc2cc2c3cc(OCCN(C)C)ccc3n(C)c12 [Compound 5] | 0.5 µM | – | –
30 | – | 1.2 µM | Cc1c2ccncc2cc2c3cc(C(=O)NCCN4CCCCC4)ccc3n(C)c12 [Compound 213, 5,6-dimethyl-N-(2-(piperidin-1-yl)ethyl)-6H-pyrido[4,3-b]carbazole-9-carboxamide] | – | 1.7 µM | –
31 | 30 µM | – | CCc1nccc2c(C)c3c(cc12)c1cc(OC)ccc1n3C [Example 80a, 1-ethyl-9-methoxy-5,6-dimethyl-6H-pyrido[4,3-b]carbazole] | > 5 µM | – | –
32 | – | 0.5 µM | Cc1c2ccncc2cc2c3cc(OC[C@@H](C)N(C)C)ccc3n(C)c12 [Compound 242, (R)-1-((5,6-dimethyl-6H-pyrido[4,3-b]carbazol-9-yl)oxy)-N,N-dimethylpropan-2-amine] | – | 1.5 µM | –
33 | – | 12 µM | COCCNC(=O)c1ccc2c(c1)c1cc3cnccc3c(C)c1n2C [Compound 215, N-(2-methoxyethyl)-5,6-dimethyl-6H-pyrido[4,3-b]carbazole-9-carboxamide] | – | > 5 µM | –
34 | – | 0.8 µM | Cn1c2ccc(OCC(=N)N)cc2c2cc3cnccc3cc21 [Compound 245, 2-((6-methyl-6H-pyrido[4,3-b]carbazol-9-yl)oxy)acetimidamide] | – | 1.7 µM | –

Row | SMILES | Ki ([1]; Table D) | Ki ([1]; Table F) | IC25 [2, 3] | IC25 [2, 4] | IC25 [2]
35 | CN(C)CCOc1ccc2c(c1)c1cc3cnccc3cc1n2C [Compound 237, N,N-dimethyl-2-((6-methyl-6H-pyrido[4,3-b]carbazol-9-yl)oxy)ethanamine] | – | 3.6 µM | – | – | 2 µM
36 | CCN(CC)CCOc1ccc2c(c1)c1cc3cnccc3c(C)c1n2C [Example 33, 2-((5,6-dimethyl-6H-pyrido[4,3-b]carbazol-9-yl)oxy)-N,N-diethylethanamine] | 5.2 µM | – | – | – | 3.7 µM
37 | Cc1c2ccncc2cc2c3cc(OCCN4CCCCCC4)ccc3n(C)c12 [Compound 219, 9-(2-(azepan-1-yl)ethoxy)-5,6-dimethyl-6H-pyrido[4,3-b]carbazole] | – | 1.2 µM | – | – | > 5 µM
38 | Cc1c2ccncc2cc2c3cc(OCCN4CCOCC4)ccc3n(CCC(C)C)c12 [Compound 248, 4-(2-((6-isopentyl-5-methyl-6H-pyrido[4,3-b]carbazol-9-yl)oxy)ethyl)morpholine] | – | > 200 µM | – | – | > 5 µM
